Source: PubChem BioAssay (NCI)
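A five-concentration, 48-hour dose response in 96-well plates underlies each endpoint, interpolated linearly between surrounding concentrations. GI50 is the concentration that inhibits growth by half. TGI marks complete inhibition of growth.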

Assays:
Test in all cases: inhibition of tumour cell growth, NCI panel, 48 h
COLO 205 colon = tested on: COLO 205 colon
SF-295 CNS = tested on: SF-295 CNS
LOX IMVI melanoma = tested on: LOX IMVI melanoma
BT-549 breast = tested on: BT-549 breast
SNB-75 CNS = tested on: SNB-75 CNS
SK-MEL-28 melanoma = tested on: SK-MEL-28 melanoma
HCC-2998 colon = tested on: HCC-2998 colon
OVCAR-3 ovarian = tested on: OVCAR-3 ovarian
OVCAR-8 ovarian = tested on: OVCAR-8 ovarian
UO-31 renal = tested on: UO-31 renal

Structure (SMILES): Cc1cc(S(=O)(=O)N=C2Nc3cccc4cccc(c34)N2)c(S)cc1Cl
- TGI (COLO 205 colon): > 100 µM
- TGI (SF-295 CNS): > 100 µM
- TGI (LOX IMVI melanoma): > 100 µM
- TGI (BT-549 breast): > 100 µM
- TGI (SNB-75 CNS): > 100 µM
- TGI (SK-MEL-28 melanoma): > 100 µM
- TGI (HCC-2998 colon): > 100 µM
- TGI (OVCAR-3 ovarian): > 100 µM
- TGI (OVCAR-8 ovarian): > 100 µM
- TGI (UO-31 renal): > 100 µM

Structure (SMILES): COC1(CC[C@H](C)COC2OC(CO)C(O)C(O)C2O)O[C@H]2C[C@H]3[C@@H]4CC=C5C[C@@H](OC6OC(CO)C(OC7OC(C)C(O)C(O)C7O)C(O)C6OC6OC(C)C(O)C(O)C6O)CC[C@]5(C)[C@H]4CC[C@]3(C)[C@H]2[C@@H]1C (stereo not given in full)
- TGI (COLO 205 colon): 64 µM
- TGI (SF-295 CNS): 13.6 µM
- TGI (LOX IMVI melanoma): 3.6 µM
- TGI (BT-549 breast): 13.1 µM
- TGI (SNB-75 CNS): 3.8 µM
- TGI (SK-MEL-28 melanoma): 15.8 µM
- TGI (HCC-2998 colon): > 27.9 µM
- TGI (OVCAR-3 ovarian): 17.6 µM
- TGI (OVCAR-8 ovarian): 10.1 µM
- TGI (UO-31 renal): 6.79 µM

Structure (SMILES): CSc1nc(Cl)c2c(n1)Sc1nc3ccccc3n1C2O (stereo not given)
- TGI (COLO 205 colon): > 21.6 µM
- TGI (SF-295 CNS): > 100 µM
- TGI (LOX IMVI melanoma): 3.9 µM
- TGI (BT-549 breast): > 84.4 µM
- TGI (SNB-75 CNS): > 82.2 µM
- TGI (SK-MEL-28 melanoma): > 100 µM
- TGI (HCC-2998 colon): 13.6 µM
- TGI (OVCAR-3 ovarian): > 26.5 µM
- TGI (OVCAR-8 ovarian): > 29.5 µM
- TGI (UO-31 renal): 24.3 µM

Structure (SMILES): Cc1c(C(=O)NNc2ccccc2)n2c(=S)[nH]nc2c2ccccc12
- TGI (COLO 205 colon): > 100 µM
- TGI (SF-295 CNS): > 100 µM
- TGI (LOX IMVI melanoma): > 100 µM
- TGI (BT-549 breast): > 100 µM
- TGI (SNB-75 CNS): > 100 µM
- TGI (SK-MEL-28 melanoma): > 100 µM
- TGI (HCC-2998 colon): > 100 µM
- TGI (OVCAR-3 ovarian): > 100 µM
- TGI (OVCAR-8 ovarian): > 100 µM
- TGI (UO-31 renal): > 100 µM

Structure (SMILES): CC1=C(C)SC(=C2Sc3c(n(C)c(=O)n(C)c3=O)S2)S1
- TGI (COLO 205 colon): > 100 µM
- TGI (SF-295 CNS): > 100 µM
- TGI (LOX IMVI melanoma): > 100 µM
- TGI (BT-549 breast): > 100 µM
- TGI (SNB-75 CNS): 52.3 µM
- TGI (SK-MEL-28 melanoma): > 100 µM
- TGI (HCC-2998 colon): > 100 µM
- TGI (OVCAR-3 ovarian): > 100 µM
- TGI (OVCAR-8 ovarian): 64.5 µM
- TGI (UO-31 renal): > 100 µM

Structure (SMILES): CCN(CC)CCCCNc1c2ccc(Cl)cc2nc2ccc(OC)cc12
- GI50 (COLO 205 colon): 0.24 µM
- TGI (COLO 205 colon): 1.32 µM
- GI50 (SF-295 CNS): 0.717 µM
- TGI (SF-295 CNS): 2.47 µM
- GI50 (LOX IMVI melanoma): 0.213 µM
- TGI (LOX IMVI melanoma): 0.583 µM
- GI50 (BT-549 breast): 1.85 µM
- TGI (BT-549 breast): 3.77 µM
- GI50 (SNB-75 CNS): 1.09 µM
- TGI (SNB-75 CNS): 2.39 µM
- GI50 (SK-MEL-28 melanoma): 1.71 µM
- TGI (SK-MEL-28 melanoma): 3.2 µM
- GI50 (HCC-2998 colon): 0.78 µM
- TGI (HCC-2998 colon): 2.32 µM
- GI50 (OVCAR-3 ovarian): 0.501 µM
- TGI (OVCAR-3 ovarian): 2.99 µM
- GI50 (OVCAR-8 ovarian): 0.406 µM
- TGI (OVCAR-8 ovarian): 3.35 µM
- GI50 (UO-31 renal): 0.759 µM
- TGI (UO-31 renal): 3.31 µM

Structure (SMILES): NC(=O)c1ccc[n+](C2=C([O-])c3ccccc3C(=O)/C2=N\S(=O)(=O)c2ccccc2)c1
- TGI (COLO 205 colon): 30.2 µM
- TGI (SF-295 CNS): 31.5 µM
- TGI (LOX IMVI melanoma): 29.5 µM
- TGI (BT-549 breast): 28.8 µM
- TGI (SNB-75 CNS): 28.1 µM
- TGI (SK-MEL-28 melanoma): 30.2 µM
- TGI (HCC-2998 colon): 22.6 µM
- TGI (OVCAR-3 ovarian): 17 µM
- TGI (OVCAR-8 ovarian): 28.4 µM
- TGI (UO-31 renal): 27.9 µM

Structure (SMILES): CCOC(=O)N1CCN(c2c(N)nc(C)[nH]c2=O)CC1
- TGI (COLO 205 colon): > 100 µM
- TGI (SF-295 CNS): > 100 µM
- TGI (LOX IMVI melanoma): > 100 µM
- TGI (BT-549 breast): > 100 µM
- TGI (SNB-75 CNS): > 100 µM
- TGI (SK-MEL-28 melanoma): > 100 µM
- TGI (HCC-2998 colon): > 100 µM
- TGI (OVCAR-3 ovarian): > 100 µM
- TGI (OVCAR-8 ovarian): > 100 µM
- TGI (UO-31 renal): > 100 µM

Structure (SMILES): CCc1nc2c(c(N(C)C)c1C(=O)OC)CCc1ccccc1-2
- TGI (COLO 205 colon): 41.8 µM
- TGI (SF-295 CNS): 50.9 µM
- TGI (LOX IMVI melanoma): > 100 µM
- TGI (BT-549 breast): > 100 µM
- TGI (SNB-75 CNS): > 100 µM
- TGI (SK-MEL-28 melanoma): > 100 µM
- TGI (HCC-2998 colon): 67.5 µM
- TGI (OVCAR-3 ovarian): 35.4 µM
- TGI (OVCAR-8 ovarian): > 100 µM
- TGI (UO-31 renal): > 100 µM

Structure (SMILES): CNC(=S)N1CCN(C(C)=O)C1=S
- TGI (COLO 205 colon): > 100 µM
- TGI (SF-295 CNS): > 100 µM
- TGI (LOX IMVI melanoma): > 100 µM
- TGI (BT-549 breast): 51.7 µM
- TGI (SNB-75 CNS): 72.9 µM
- TGI (SK-MEL-28 melanoma): > 100 µM
- TGI (HCC-2998 colon): > 100 µM
- TGI (OVCAR-3 ovarian): > 100 µM
- TGI (OVCAR-8 ovarian): > 100 µM
- TGI (UO-31 renal): > 100 µM

Structure (SMILES): CC1(C)C=C(/C=C2/N(S(=O)(=O)C(F)(F)F)C(/C=C3/N(S(=O)(=O)C(F)(F)F)C(C)(C#N)CC3(C)C)=CC2(C)C)N=C1/C=C1/CC(C)(C)C(=O)N1 (stereo not given)
- TGI (COLO 205 colon): 39.2 µM
- TGI (SF-295 CNS): > 100 µM
- TGI (LOX IMVI melanoma): 72.9 µM
- TGI (BT-549 breast): > 100 µM
- TGI (SNB-75 CNS): > 100 µM
- TGI (SK-MEL-28 melanoma): > 100 µM
- TGI (HCC-2998 colon): > 100 µM
- TGI (OVCAR-3 ovarian): > 100 µM
- TGI (OVCAR-8 ovarian): > 100 µM
- TGI (UO-31 renal): > 100 µM

Structure (SMILES): CC[C@H](NC(=O)OC(C)(C)C)C(=O)NCP(=O)(OCc1ccc([N+](=O)[O-])cc1)OCc1ccc([N+](=O)[O-])cc1
- TGI (COLO 205 colon): 30 µM
- TGI (SF-295 CNS): 55.7 µM
- TGI (LOX IMVI melanoma): > 100 µM
- TGI (BT-549 breast): > 100 µM
- TGI (SNB-75 CNS): > 100 µM
- TGI (SK-MEL-28 melanoma): 92.9 µM
- TGI (HCC-2998 colon): > 100 µM
- TGI (OVCAR-3 ovarian): > 100 µM
- TGI (OVCAR-8 ovarian): > 100 µM
- TGI (UO-31 renal): 80.2 µM

Structure (SMILES): O=c1c2ccc(Cl)cc2oc2c(CNc3ccc(S(=O)(=O)Nc4ncccn4)cc3)cccc12
- TGI (COLO 205 colon): > 100 µM
- TGI (SF-295 CNS): > 100 µM
- TGI (LOX IMVI melanoma): > 100 µM
- TGI (BT-549 breast): > 100 µM
- TGI (SNB-75 CNS): > 100 µM
- TGI (SK-MEL-28 melanoma): > 100 µM
- TGI (HCC-2998 colon): > 100 µM
- TGI (OVCAR-3 ovarian): > 100 µM
- TGI (OVCAR-8 ovarian): > 100 µM
- TGI (UO-31 renal): > 100 µM

Structure (SMILES): CCN(CC)C(=S)N/N=C(/c1ccccc1)c1ccccn1
- TGI (COLO 205 colon): 0.0942 µM
- TGI (SF-295 CNS): 25.4 µM
- TGI (LOX IMVI melanoma): > 35.8 µM
- TGI (BT-549 breast): > 100 µM
- TGI (SNB-75 CNS): 7.59 µM
- TGI (SK-MEL-28 melanoma): > 79.7 µM
- TGI (HCC-2998 colon): 37 µM
- TGI (OVCAR-3 ovarian): 32.5 µM
- TGI (OVCAR-8 ovarian): 11.3 µM
- TGI (UO-31 renal): 9.52 µM

Structure (SMILES): CN(C)CCNCCCNc1c2ccccc2nc2cccc([N+](=O)[O-])c12
- TGI (COLO 205 colon): 0.0245 µM
- TGI (SF-295 CNS): 0.0741 µM
- TGI (LOX IMVI melanoma): < 0.0253 µM
- TGI (BT-549 breast): 0.624 µM
- TGI (SNB-75 CNS): 0.0573 µM
- TGI (SK-MEL-28 melanoma): 0.442 µM
- TGI (HCC-2998 colon): < 0.0184 µM
- TGI (OVCAR-3 ovarian): 0.0466 µM
- TGI (OVCAR-8 ovarian): 0.0532 µM
- TGI (UO-31 renal): 0.26 µM

Structure (SMILES): CN(C)/N=N/c1nc2c(c(=O)n(C)c(=O)n2C)n1CC1CO1 (stereo not given)
- TGI (COLO 205 colon): 27.3 µM
- TGI (SF-295 CNS): 56.9 µM
- TGI (LOX IMVI melanoma): 23.7 µM
- TGI (BT-549 breast): 52.7 µM
- TGI (SNB-75 CNS): 43.6 µM
- TGI (SK-MEL-28 melanoma): 59.7 µM
- TGI (HCC-2998 colon): 25.3 µM
- TGI (OVCAR-3 ovarian): 31.4 µM
- TGI (OVCAR-8 ovarian): 36.7 µM
- TGI (UO-31 renal): 31.3 µM

Structure (SMILES): O=C([C@H](O)[C@@H](O)c1cccc(Cl)c1)C12CC3CC(CC(C3)C1)C2
- TGI (COLO 205 colon): 4.23 µM
- TGI (SF-295 CNS): 11.4 µM
- TGI (LOX IMVI melanoma): 2.65 µM
- TGI (BT-549 breast): 3.74 µM
- TGI (SNB-75 CNS): 3.7 µM
- TGI (SK-MEL-28 melanoma): 12.6 µM
- TGI (HCC-2998 colon): 4.15 µM
- TGI (OVCAR-3 ovarian): 4.37 µM
- TGI (OVCAR-8 ovarian): 4.69 µM
- TGI (UO-31 renal): 3.83 µM
